Like-named read-outs stand apart in the source and are kept apart here.
Assays:
[1] = tested on: 2019 novel coronavirus (SARS-CoV-2); test: microbe, parasite or virus in culture; type: cell-based; details: for inhibition at 5 µM: read-out: Inhibition Rate (5 μM); for inhibition at 10 µM: read-out: Inhibition Rate (10 μM)
[2] = tested on: porcine epidemic diarrhea virus (PEDV); test: Anti-porcine epidemic diarrhea virus (PEDV) activity test in Vero cells, fluorescence quantitative PCR; type: cell-based; details: 36 h
[3] = tested on: dengue fever virus (DENV); test: Dengue virus plaque reduction test in Vero cells; type: cell-based; details: for inhibition at 5 µM: Dengue virus, read-out: DENV (Vero) 5 μM (inhibition rate), 5 μM, plaque reduction
[4] = target: RNA-dependent RNA polymerase (RdRp) of 2019 novel coronavirus (SARS-CoV-2) (Severe acute respiratory syndrome coronavirus 2 (2019-nCoV) (SARS-CoV-2), UniProt P0DTD1); test: Inhibition of RdRp of novel coronavirus, fluorescence method; type: biochemical; details: for inhibition of the activity of RdRp (in words): RdRp of novel coronavirus
Protocol: According to the method reported in the literature (Virus Genes, 2015, 50:498-504), the inhibitory activity of the compound of the invention on RNA-dependent RNA polymerase (RdRp) of 2019 novel coronavirus (SARS-CoV-2) was determined using the fluorescence method: after the solution of the novel coronavirus RdRp, substrate, compound solution, buffer solution, etc were co-incubated for 1 hour, fluorescent DNA binding dye was added. 10 minutes later, data collection was carried out and the inhibitory activities of the compounds on RdRp were determined.

[5] = tested on: respiratory syncytial virus (RSV); test: Cytopathic effect (CPE) assay, RSV in HEp-2; type: cell-based; details: human respiratory syncytial virus, HEp-2 cells
in vitro [6] = details: human
in vitro [7] = details: human; remark: listed apart in the source
[8] = tested on: human coronavirus OC43 (HCoV OC43); test: Cytopathic effect (CPE) assay, HCoV OC43 in Huh7; type: cell-based; details: Betacoronavirus 1, OC43, Huh-7, Huh7 cells
Protocol: The inhibitory effects of compounds on the replication of respiratory syncytial virus (RSV), human coronavirus OC43, influenza A virus, Zika virus (Zika) were tested using cytopathic effect (CPE) assay.
Experimental cells were inoculated in 96-well cell culture plate at a certain cell density, and cultured in an incubator (5% CO2, 37° C.) overnight. Compounds and viruses were added on the second day. […] Then cell viability of each well was detected using Cell Titer-Glo or CCK-8. […] The cytotoxicity test method was the same as the corresponding antiviral test method without virus infection.
The antiviral activity and cytotoxicity of the compounds are respectively indicated by the inhibition rate (%) of compounds on virus-induced cellular viral effects and cell viability (%). Calculating formulas are as follows:
Inhibition rate (%)=(reading value of test well—average value of virus control)/(average value of cell control—average value of virus control)×100;
EC50 and CC50 value are calculated by Prism software, and the inhibition curve fitting method is “log (inhibitor) vs. response—Variable slope”.

[9] = Severe acute respiratory syndrome coronavirus 2, Vero C1008, 24 h, 5 μM, Vero E6 cells, 24 h p.i.
[10] = Severe acute respiratory syndrome coronavirus 2, Vero C1008, 24 h, 10 μM, Vero E6 cells, 24 h p.i.
[11] = Porcine epidemic diarrhea virus, Vero
[12] = Severe acute respiratory syndrome coronavirus 2, Vero C1008, 24 h
[13] = Severe acute respiratory syndrome coronavirus 2, Vero C1008, Vero E6 cells, 24 h p.i., read-out: EC50

NC(=O)c1nc(F)cnc1O [Favipiravir, reference compound]
inhibition at 5 µM [1, 9]: 0%
inhibition at 10 µM [1, 10]: < 20%

[2H]c1cc([C@]2(C#N)O[C@H](C([2H])([2H])OC(=O)C(C)C)[C@@H](OC(=O)C(C)C)[C@H]2OC(=O)C(C)C)n2ncnc(N)c12 [Compound A196]
inhibition at 5 µM [1, 9]: > 98%

NC(=O)[C@@]1(c2ccc3c(N)ncnn23)O[C@H](CO)[C@@H](O)[C@H]1O [Compound A112]
inhibition at 10 µM [1, 10]: < 50%

Nc1ncnn2c([C@]3(C4CC4)O[C@H](CO)[C@@H](O)[C@H]3O)ccc12 [Compound A28]
EC50 [2, 11]: 1100 nM
inhibition at 5 µM [3]: 6%

N#C[C@@]1(c2cc(F)c3c(N)ncnn23)O[C@H](COP(=O)(O)OP(=O)(O)OP(=O)(O)O)[C@@H](O)[C@H]1O [Compound A102]
IC50 ([4]; RdRp of 2019 novel coronavirus): 1000 to 10000 nM
inhibition of the activity of RdRp (in words) [4]: significantly inhibit the activity of RdRp

[2H]c1cc([C@]2(C#N)O[C@H](C([2H])([2H])OC(=O)C(C)C)[C@@H](O)[C@H]2O)n2ncnc(N)c12 [Compound A180]
inhibition at 5 µM [1, 9]: > 98%

CCC(CC)COC(=O)[C@H](C)N[P@](=O)(OC[C@H]1O[C@@](C#N)(c2cc(F)c3c(N)ncnn23)[C@H](O)[C@@H]1O)Oc1ccccc1 [Compound A84]
inhibition at 10 µM [1, 12]: 82%

N#C[C@@]1(c2cc(Cl)c3c(N)ncnn23)O[C@H](CO)[C@@H](O)[C@H]1O [Compound A2]
inhibition at 10 µM [1, 10]: < 50%

CC(C)[C@H](N)C(=O)O[C@H]1[C@@H](O)[C@](C#N)(c2ccc3c(N)ncnn23)O[C@@H]1CO [Compound A212]
inhibition at 5 µM [1, 9]: 99%
inhibition at 10 µM [1, 10]: 99%
EC50 [1, 13]: 110 nM

[2H]C([2H])(OC(=O)C(C)C)[C@H]1O[C@@](C#N)(c2ccc3c(N)ncnn23)[C@H](O)[C@@H]1O [Compound A75]
inhibition at 5 µM [1, 9]: 99%
EC50 [5]: 490 nM
CC50 (in vitro [6]): > 10000 nM

[2H]C([2H])(O)[C@H]1O[C@@](C#N)(c2ccc3c(N)ncnn23)[C@H](O)[C@@H]1OC(=O)[C@@H](N)C(C)C [Compound A214]
inhibition at 5 µM [1, 9]: 99%
EC50 [1, 13]: 110 nM

CC(C)C(=O)OC[C@H]1O[C@@](C#N)(c2ccc3c(N)ncnn23)[C@H](OC(=O)C(C)C)[C@@H]1OC(=O)C(C)C [Compound A131]
EC50 [2, 11]: < 100 nM
inhibition at 5 µM [1, 9]: > 98%

[2H]C([2H])(O)[C@H]1O[C@@](C#N)(c2ccc3c(N)ncnn23)[C@H](O)[C@@H]1OC(=O)C(C)C [Compound A164]
inhibition at 5 µM [1, 9]: 99%
EC50 [1, 13]: 270 nM

N#C[C@@]1(c2cc(I)c3c(N)ncnn23)O[C@H](CO)[C@@H](O)[C@H]1O [Compound A3]
inhibition at 10 µM [1, 10]: < 50%

N#C[C@@]1(c2cc(F)c3c(N)ncnn23)O[C@H](CO)[C@@H](O)[C@H]1O [Compound A1]
inhibition at 5 µM [1, 9]: 80%
inhibition at 10 µM [1, 10]: 97%

N#C[C@@]1(c2ccc3c(N)ncnn23)O[C@H](CO)[C@@H](O)[C@H]1O [Compound A216]
EC50 [2]: 1920 nM
inhibition at 5 µM [3]: 24%

N#C[C@@]1(c2ccc3c(N)ncnn23)O[C@H](COP(=O)(O)OP(=O)(O)OP(=O)(O)O)[C@@H](O)[C@H]1O [Compound A109]
EC50 [1, 12]: 580 nM
inhibition at 5 µM [1, 12]: 99%
inhibition at 10 µM [1, 12]: 99%

[2H]c1cc([C@]2(C#N)O[C@H](CO)[C@@H](OC(=O)C(C)C)[C@H]2O)n2ncnc(N)c12 [Compound A144]
EC50 [2, 11]: < 100 nM
CC50 (in vitro [7]): > 10000 nM
inhibition at 5 µM [1, 9]: 99%
EC50 [1, 13]: 240 nM
EC50 [8]: 1880 nM
EC50 [5]: 470 nM
CC50 (in vitro [6]): > 10000 nM

[2H]c1cc([C@]2(C#N)O[C@H](CO)[C@@H](OC(=O)[C@@H](N)C(C)C)[C@H]2O)n2ncnc(N)c12 [Compound A213]
CC50 (in vitro [7]): > 10000 nM
inhibition at 5 µM [1, 9]: 99%
EC50 [1, 13]: 100 nM
EC50 [8]: 1970 nM
EC50 [5]: 760 nM
CC50 (in vitro [6]): > 10000 nM

[2H]c1cc([C@]2(C#N)O[C@H](COP(=O)(O)OP(=O)(O)OP(=O)(O)O)[C@@H](O)[C@H]2O)n2ncnc(N)c12 [Compound A106]
inhibition of the activity of RdRp (in words) [4]: significantly inhibit the activity of RdRp

[2H]c1cc([C@]2(C#N)O[C@H](C([2H])([2H])O)[C@@H](OC(=O)[C@@H](N)C(C)C)[C@H]2O)n2ncnc(N)c12 [Compound A215]
inhibition at 5 µM [1, 9]: > 98%

[2H]c1cc([C@]2(C#N)O[C@H](C([2H])([2H])OP(=O)(O)OP(=O)(O)OP(=O)(O)O)[C@@H](O)[C@H]2O)n2ncnc(N)c12 [Compound A198]
inhibition of the activity of RdRp (in words) [4]: significantly inhibit the activity of RdRp

[2H]C([2H])(OC(=O)C(C)C)[C@H]1O[C@@](C#N)(c2ccc3c(N)ncnn23)[C@H](OC(=O)C(C)C)[C@@H]1OC(=O)C(C)C [Compound A171]
inhibition at 5 µM [1, 9]: > 98%

[2H]c1cc([C@]2(C#N)O[C@H](COC(=O)[C@@H](N)C(C)C)[C@@H](O)[C@H]2O)n2ncnc(N)c12 [Compound A72]
inhibition at 5 µM [1, 9]: 99%
EC50 [5]: 770 nM
CC50 (in vitro [6]): > 10000 nM

[2H]C([2H])(O)[C@H]1O[C@@](C#N)(c2cc(F)c3c(N)ncnn23)[C@H](O)[C@@H]1O [Compound A12]
inhibition at 5 µM [1, 9]: > 98%

[2H]c1cc([C@]2(C#N)O[C@H](C([2H])([2H])O)[C@@H](OC(=O)C(C)C)[C@H]2O)n2ncnc(N)c12 [Compound A188]
inhibition at 5 µM [1, 9]: > 98%

[2H]C([2H])(OC(=O)[C@@H](N)C(C)C)[C@H]1O[C@@](C#N)(c2ccc3c(N)ncnn23)[C@H](O)[C@@H]1O [Compound A77]
inhibition at 5 µM [1, 9]: > 98%

CO[C@@H]1[C@H](O)[C@@H](CO)O[C@@]1(C#N)c1ccc2c(N)ncnn12 [Compound A221]
EC50 [2, 11]: 1350 nM
inhibition at 5 µM [3]: 51%

NC(=O)c1ncn([C@@H]2O[C@H](CO)[C@@H](O)[C@H]2O)n1 [Ribavirin, reference compound]
DENV (Vero) value printed without unit ([3]; column head 5 μM, no % printed): 17.4

N#C[C@@]1(c2ccc3c(=O)[nH]cnn23)O[C@H](CO)[C@@H](O)[C@H]1O [Compound A4]
inhibition at 10 µM [1, 10]: < 50%

[2H]c1cc([C@]2(C#N)O[C@H](C([2H])([2H])O)[C@@H](OC(=O)C(C)C)[C@H]2O)n2ncnc(N)c12 [Compound A173]
EC50 [5]: 460 nM
CC50 (in vitro [6]): > 10000 nM

CC(C)C(=O)OC[C@H]1O[C@@](C#N)(c2ccc3c(N)ncnn23)[C@H](O)[C@@H]1O [Compound A50]
EC50 [2]: 2 nM
Inhibition Rate (5 μM) ([1]; 5 μM, Vero E6 cells, 24 h p.i.): 99%
Inhibition Rate (10 μM) ([1]; 10 μM, Vero E6 cells, 24 h p.i.): 99%
EC50 ([1]; Vero E6 cells, 24 h p.i., read-out: EC50): 230 nM

[2H]c1cc([C@]2(C#N)O[C@H](C([2H])([2H])OC(=O)[C@@H](N)C(C)C)[C@@H](O)[C@H]2O)n2ncnc(N)c12 [Compound A181]
inhibition at 5 µM [1, 9]: > 98%

CC(C)[C@H](N)C(=O)OC[C@H]1O[C@@](C#N)(c2ccc3c(N)ncnn23)[C@H](O)[C@@H]1O [Compound A52]
inhibition at 5 µM [1, 9]: > 98%

CCC(CC)COC(=O)[C@H](C)N[P@](=O)(OC[C@H]1O[C@@](C#N)(c2ccc3c(N)ncnn23)[C@H](O)[C@@H]1O)Oc1ccccc1 [Remdesivir, reference compound]
CC50 (in vitro [7]): 25700 nM
inhibition at 5 µM [1, 9]: 65%
inhibition at 10 µM [1, 10]: 99%
EC50 [1, 13]: 2000 nM
inhibition at 5 µM [3]: 100%
EC50 [8]: 21 nM

From patent US20240140975A1, “ANTIVIRAL APPLICATION OF NUCLEOSIDE ANALOG OR COMBINATION FORMULATION CONTAINING NUCLEOSIDE ANALOG” (priority 2020, published 2024)
